{"source": "PubChem BioAssay (NCI)", "assay_in_all_cases": "NCI-60 cell line screen, 48 h", "key": {"[1]": {"test_system": "CCRF-CEM leukemia"}, "[2]": {"test_system": "HCT-15 colon"}, "[3]": {"test_system": "UACC-257 melanoma"}, "[4]": {"test_system": "NCI-H460 lung"}, "[5]": {"test_system": "MCF7 breast"}, "[6]": {"test_system": "NCI/ADR-RES ovarian"}, "[7]": {"test_system": "HL-60(TB) leukemia"}, "[8]": {"test_system": "MALME-3M melanoma"}, "[9]": {"test_system": "SNB-19 CNS"}, "[10]": {"test_system": "RPMI-8226 leukemia"}, "[11]": {"test_system": "SF-539 CNS"}, "[12]": {"test_system": "SR leukemia"}, "[13]": {"test_system": "SF-295 CNS"}, "[14]": {"test_system": "SK-MEL-28 melanoma"}, "[15]": {"test_system": "HCC-2998 colon"}, "[16]": {"test_system": "HOP-92 NSCLC"}, "[17]": {"test_system": "SK-MEL-5 melanoma"}, "[18]": {"test_system": "NCI-H522 lung"}, "[19]": {"test_system": "HS 578T breast"}, "[20]": {"test_system": "COLO 205 colon"}, "[21]": {"test_system": "MDA-MB-231 breast"}, "[22]": {"test_system": "SNB-75 CNS"}, "[23]": {"test_system": "TK-10 renal"}, "[24]": {"test_system": "MOLT-4 leukemia"}, "[25]": {"test_system": "OVCAR-3 ovarian"}, "[26]": {"test_system": "NCI-H23 lung"}, "[27]": {"test_system": "NCI-H226 lung"}, "[28]": {"test_system": "786-0 renal"}, "[29]": {"test_system": "M14 melanoma"}, "[30]": {"test_system": "OVCAR-8 ovarian"}, "[31]": {"test_system": "HOP-62 NSCLC"}, "[32]": {"test_system": "RXF 393 renal"}, "[33]": {"test_system": "UACC-62 melanoma"}, "[34]": {"test_system": "PC-3 prostate"}, "[35]": {"test_system": "OVCAR-4 ovarian"}, "[36]": {"test_system": "K-562 leukemia"}, "[37]": {"test_system": "CAKI-1 renal"}, "[38]": {"test_system": "HCT-116 colon"}, "[39]": {"test_system": "U251 CNS"}, "[40]": {"test_system": "MDA-MB-435"}, "[41]": {"test_system": "ACHN renal"}, "[42]": {"test_system": "HT29 colon"}, "[43]": {"test_system": "EKVX NSCLC"}, "[44]": {"test_system": "A549 NSCLC"}, "[45]": {"test_system": "BT-549 breast"}, "[46]": {"test_system": "SW-620 colon"}, "[47]": {"test_system": "SK-MEL-2 melanoma"}, "[48]": {"test_system": "UO-31 renal"}, "[49]": {"test_system": "SK-OV-3 ovarian"}, "[50]": {"test_system": "KM12 colon"}, "[51]": {"test_system": "IGROV1 ovarian"}, "[52]": {"test_system": "SF-268 CNS"}, "[53]": {"test_system": "OVCAR-5 ovarian"}}, "note": "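Five concentrations, 48 hours, 96-well plates. At the TGI there is no net growth.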", "data": [{"smiles": "Cc1cccc(N=Nc2ccc(N=Nc3c(O)ccc4ccccc34)cc2C)c1", "values": [{"measurement": "TGI", "setting": "[1]", "value": "> 100", "unit": "µM"}, {"measurement": "TGI", "setting": "[2]", "value": "> 100", "unit": "µM"}, {"measurement": "TGI", "setting": "[3]", "value": "> 100", "unit": "µM"}, {"measurement": "TGI", "setting": "[4]", "value": "> 100", "unit": "µM"}, {"measurement": "TGI", "setting": "[5]", "value": "> 100", "unit": "µM"}, {"measurement": "TGI", "setting": "[6]", "value": 50.7, "unit": "µM"}, {"measurement": "TGI", "setting": "[7]", "value": "> 100", "unit": "µM"}, {"measurement": "TGI", "setting": "[8]", "value": 5.34, "unit": "µM"}, {"measurement": "TGI", "setting": "[9]", "value": "> 100", "unit": "µM"}, {"measurement": "TGI", "setting": "[10]", "value": "> 100", "unit": "µM"}, {"measurement": "TGI", "setting": "[11]", "value": "> 100", "unit": "µM"}, {"measurement": "TGI", "setting": "[12]", "value": 49.5, "unit": "µM"}, {"measurement": "TGI", "setting": "[13]", "value": "> 100", "unit": "µM"}, {"measurement": "TGI", "setting": "[14]", "value": "> 100", "unit": "µM"}, {"measurement": "TGI", "setting": "[15]", "value": "> 100", "unit": "µM"}, {"measurement": "TGI", "setting": "[16]", "value": "> 100", "unit": "µM"}, {"measurement": "TGI", "setting": "[17]", "value": "> 100", "unit": "µM"}, {"measurement": "TGI", "setting": "[18]", "value": 37.6, "unit": "µM"}, {"measurement": "TGI", "setting": "[19]", "value": "> 100", "unit": "µM"}, {"measurement": "TGI", "setting": "[20]", "value": "> 100", "unit": "µM"}, {"measurement": "TGI", "setting": "[21]", "value": "> 100", "unit": "µM"}, {"measurement": "TGI", "setting": "[22]", "value": 37.8, "unit": "µM"}, {"measurement": "TGI", "setting": "[23]", "value": "> 100", "unit": "µM"}, {"measurement": "TGI", "setting": "[24]", "value": "> 100", "unit": "µM"}, {"measurement": "TGI", "setting": "[25]", "value": "> 100", "unit": "µM"}, {"measurement": "TGI", "setting": "[26]", "value": "> 100", "unit": "µM"}, {"measurement": "TGI", "setting": "[27]", "value": "> 100", "unit": "µM"}, {"measurement": "TGI", "setting": "[28]", "value": "> 100", "unit": "µM"}, {"measurement": "TGI", "setting": "[29]", "value": "> 100", "unit": "µM"}, {"measurement": "TGI", "setting": "[30]", "value": 60.3, "unit": "µM"}, {"measurement": "TGI", "setting": "[31]", "value": 89.6, "unit": "µM"}, {"measurement": "TGI", "setting": "[32]", "value": "> 100", "unit": "µM"}, {"measurement": "TGI", "setting": "[33]", "value": "> 100", "unit": "µM"}, {"measurement": "TGI", "setting": "[34]", "value": "> 100", "unit": "µM"}, {"measurement": "TGI", "setting": "[35]", "value": "> 100", "unit": "µM"}, {"measurement": "TGI", "setting": "[36]", "value": "> 100", "unit": "µM"}, {"measurement": "TGI", "setting": "[37]", "value": "> 100", "unit": "µM"}, {"measurement": "TGI", "setting": "[38]", "value": "> 100", "unit": "µM"}, {"measurement": "TGI", "setting": "[39]", "value": "> 100", "unit": "µM"}, {"measurement": "TGI", "setting": "[40]", "value": "> 100", "unit": "µM"}, {"measurement": "TGI", "setting": "[41]", "value": "> 100", "unit": "µM"}, {"measurement": "TGI", "setting": "[42]", "value": "> 100", "unit": "µM"}, {"measurement": "TGI", "setting": "[43]", "value": "> 100", "unit": "µM"}, {"measurement": "TGI", "setting": "[44]", "value": "> 100", "unit": "µM"}, {"measurement": "TGI", "setting": "[45]", "value": "> 100", "unit": "µM"}, {"measurement": "TGI", "setting": "[46]", "value": "> 100", "unit": "µM"}, {"measurement": "TGI", "setting": "[47]", "value": "> 100", "unit": "µM"}, {"measurement": "TGI", "setting": "[48]", "value": "> 100", "unit": "µM"}, {"measurement": "TGI", "setting": "[49]", "value": 92.4, "unit": "µM"}, {"measurement": "TGI", "setting": "[50]", "value": "> 100", "unit": "µM"}, {"measurement": "TGI", "setting": "[51]", "value": "> 100", "unit": "µM"}, {"measurement": "TGI", "setting": "[52]", "value": "> 100", "unit": "µM"}, {"measurement": "TGI", "setting": "[53]", "value": "> 100", "unit": "µM"}]}]}
